According to ChEMBL document CHEMBL5331140, “Discovery of IACS-52825, a Potent and Selective DLK Inhibitor for Treatment of Chemotherapy-Induced Peripheral Neuropathy” (J Med Chem, 2023):
Calls of active or inactive are those of the source.

Tests used:
[1] = Binding affinity to full length human DLK (1 to 859 residues)/NFkappaB DNA binding domain (unknown origin) fusion protein transfected in HEK293 cells assessed as dissociation constant incubated for 1 hr by Kinomescan assay; assay type: cell-based
[2] = Metabolic stability in mouse liver microsomes assessed as intrinsic clearance at 1 uM in presence of NADPH regenerating system measured for 45 mins by LC-MS/MS analysis; assay type: ADME, Microsome; conditions: read-out: CLH
[3] = Metabolic stability in rat liver microsomes assessed as intrinsic clearance at 1 uM in presence of NADPH regenerating system measured for 45 mins by LC-MS/MS analysis; assay type: ADME, Microsome; conditions: read-out: CLH
[4] = Metabolic stability in human liver microsomes assessed as intrinsic clearance at 1 uM in presence of NADPH regenerating system measured for 45 mins by LC-MS/MS analysis; assay type: ADME, Microsome; conditions: read-out: CLH
[5] = Half life in C57BL/6 mouse at 0.3 mg/kg, iv measured for 24 hrs by LC-MS/MS analysis; assay type: ADME, organism-based; conditions: in vivo
[6] = Ratio of unbound drug concentration in C57BL/6 mouse brain to plasma at 0.3 mg/kg, iv measured for 24 hrs by LC-MS/MS analysis; assay type: ADME, organism-based; conditions: brain and plasma, read-out: K(p,uu,brain)
[7] = Oral bioavailability in C57BL/6 mouse at 10 mg/kg administered via oral gavage and measured for 24 hrs by LC-MS/MS analysis; assay type: ADME, organism-based; conditions: in vivo; for bioavailability: C57BL/6, mouse
[8] = Half life in Sprague-Dawley rat at 3 mg/kg, po or 0.3 mg/kg, iv measured for 24 hrs by LC-MS/MS analysis; assay type: ADME, organism-based; conditions: in vivo
[9] = Oral bioavailability in Sprague-Dawley rat at 3 mg/kg administered via oral gavage and measured for 24 hrs by LC-MS/MS analysis; assay type: ADME, organism-based; conditions: in vivo
[10] = Half life in Beagle dog at 1 mg/kg, po or 0.3 mg/kg, iv measured for 24 hrs by LC-MS/MS analysis; assay type: ADME, organism-based, Canis lupus familiaris; conditions: in vivo
[11] = Oral bioavailability in Beagle dog at 1 mg/kg administered via oral gavage and measured for 24 hrs by LC-MS/MS analysis; assay type: ADME, organism-based, Canis lupus familiaris; conditions: in vivo
[12] = Half life in cynomolgus monkey at 1 mg/kg, po or 0.3 mg/kg, iv measured for 24 hrs by LC-MS/MS analysis; assay type: ADME, organism-based, Macaca fascicularis; conditions: in vivo
[13] = Oral bioavailability in cynomolgus monkey at 1 mg/kg administered via nasal gavage measured for 24 hrs by LC-MS/MS analysis; assay type: ADME, organism-based, Macaca fascicularis; conditions: in vivo
[14] = target: T1, Dual specificity mitogen-activated protein kinase kinase 5 (Homo sapiens) (UniProt Q13163); test: Inhibition of MEK5 (unknown origin) at 1 uM relative to control
T1 sequence (whole entry): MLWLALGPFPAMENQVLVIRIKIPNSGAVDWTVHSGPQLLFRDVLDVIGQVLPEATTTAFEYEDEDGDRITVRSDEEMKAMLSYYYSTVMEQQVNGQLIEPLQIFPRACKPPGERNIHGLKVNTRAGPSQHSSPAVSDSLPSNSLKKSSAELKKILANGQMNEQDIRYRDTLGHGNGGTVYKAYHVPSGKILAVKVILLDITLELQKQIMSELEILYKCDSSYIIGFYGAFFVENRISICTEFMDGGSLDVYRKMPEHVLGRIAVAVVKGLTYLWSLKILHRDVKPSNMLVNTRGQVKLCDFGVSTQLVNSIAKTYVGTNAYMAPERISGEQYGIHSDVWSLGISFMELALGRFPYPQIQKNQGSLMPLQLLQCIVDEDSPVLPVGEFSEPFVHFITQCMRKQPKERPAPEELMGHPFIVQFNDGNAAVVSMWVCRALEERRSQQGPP

Mus musculus [15] = test: Antiallodynic activity in cisplatin-induced mechanical allodynia C57BL/6 mouse model assessed as increase in paw withdrawal threshold at 30 mg/kg, po stimulated with cisplatin on day 1 to 5 and 10 to 15 followed by daily administration of compound from day 6 to 16 and measured for 30 days by von frey test; assay type: functional, organism-based; conditions: time 25.0 day
Mus musculus [16] = test: Antiallodynic activity in cisplatin-induced mechanical allodynia C57BL/6 mouse model assessed as increase in paw withdrawal threshold at 30 mg/kg, po stimulated with cisplatin on day 1 to 5 and 10 to 15 followed by daily administration of compound from day 16 and measured for 35 days by von frey test; assay type: functional, organism-based; conditions: time 20.0 day
[17] = Toxicity in rat by GLP toxicity study; conditions: in vivo
[18] = target: Voltage-gated inwardly rectifying potassium channel KCNH2 (Homo sapiens, UniProt Q12809)
Chain of Voltage-gated inwardly rectifying potassium channel KCNH2 (Q12809 whole entry): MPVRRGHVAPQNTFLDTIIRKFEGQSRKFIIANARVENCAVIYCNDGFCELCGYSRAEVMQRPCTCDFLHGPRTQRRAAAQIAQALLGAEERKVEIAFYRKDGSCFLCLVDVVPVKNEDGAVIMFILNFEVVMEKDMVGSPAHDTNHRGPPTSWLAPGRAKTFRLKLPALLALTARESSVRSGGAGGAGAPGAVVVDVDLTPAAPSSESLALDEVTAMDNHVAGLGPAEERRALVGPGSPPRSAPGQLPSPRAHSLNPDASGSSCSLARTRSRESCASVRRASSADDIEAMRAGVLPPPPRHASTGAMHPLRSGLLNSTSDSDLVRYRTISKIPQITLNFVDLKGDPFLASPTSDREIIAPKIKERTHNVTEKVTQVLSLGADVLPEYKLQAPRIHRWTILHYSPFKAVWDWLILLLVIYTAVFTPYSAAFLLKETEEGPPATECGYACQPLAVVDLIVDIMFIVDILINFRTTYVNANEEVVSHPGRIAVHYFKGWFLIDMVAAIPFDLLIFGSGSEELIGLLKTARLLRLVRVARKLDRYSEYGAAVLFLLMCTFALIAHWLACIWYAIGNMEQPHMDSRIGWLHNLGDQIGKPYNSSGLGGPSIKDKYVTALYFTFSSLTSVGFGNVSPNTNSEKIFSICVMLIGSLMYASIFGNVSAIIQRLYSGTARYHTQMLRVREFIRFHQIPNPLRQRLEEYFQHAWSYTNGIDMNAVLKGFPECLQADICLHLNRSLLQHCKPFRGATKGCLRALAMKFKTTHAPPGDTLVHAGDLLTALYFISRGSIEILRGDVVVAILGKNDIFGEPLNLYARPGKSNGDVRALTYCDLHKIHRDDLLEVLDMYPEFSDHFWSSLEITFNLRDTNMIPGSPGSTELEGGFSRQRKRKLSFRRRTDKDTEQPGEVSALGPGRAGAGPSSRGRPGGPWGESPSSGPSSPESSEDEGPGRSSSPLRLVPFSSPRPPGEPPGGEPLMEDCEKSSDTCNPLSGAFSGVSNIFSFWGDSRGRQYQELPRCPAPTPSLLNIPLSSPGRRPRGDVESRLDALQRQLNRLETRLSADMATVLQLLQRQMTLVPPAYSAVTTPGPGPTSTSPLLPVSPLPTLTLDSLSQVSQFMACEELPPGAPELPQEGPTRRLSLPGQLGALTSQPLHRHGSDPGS
Description: Inhibition of hERG expressed in CHO cells at -80 mV holding potential by QPatch automated electrophysiology assay

[19] = target: T2, Mitogen-activated protein kinase kinase kinase 12 (Homo sapiens, UniProt Q12852); test: Inhibition of doxycycline-inducible human DLK transfected in HEK293 cells assessed as reduction in c-Jun phosphorylation at Ser63 residue incubated for 5 hrs; assay type: cell-based
T2 sequence (Q12852 whole entry): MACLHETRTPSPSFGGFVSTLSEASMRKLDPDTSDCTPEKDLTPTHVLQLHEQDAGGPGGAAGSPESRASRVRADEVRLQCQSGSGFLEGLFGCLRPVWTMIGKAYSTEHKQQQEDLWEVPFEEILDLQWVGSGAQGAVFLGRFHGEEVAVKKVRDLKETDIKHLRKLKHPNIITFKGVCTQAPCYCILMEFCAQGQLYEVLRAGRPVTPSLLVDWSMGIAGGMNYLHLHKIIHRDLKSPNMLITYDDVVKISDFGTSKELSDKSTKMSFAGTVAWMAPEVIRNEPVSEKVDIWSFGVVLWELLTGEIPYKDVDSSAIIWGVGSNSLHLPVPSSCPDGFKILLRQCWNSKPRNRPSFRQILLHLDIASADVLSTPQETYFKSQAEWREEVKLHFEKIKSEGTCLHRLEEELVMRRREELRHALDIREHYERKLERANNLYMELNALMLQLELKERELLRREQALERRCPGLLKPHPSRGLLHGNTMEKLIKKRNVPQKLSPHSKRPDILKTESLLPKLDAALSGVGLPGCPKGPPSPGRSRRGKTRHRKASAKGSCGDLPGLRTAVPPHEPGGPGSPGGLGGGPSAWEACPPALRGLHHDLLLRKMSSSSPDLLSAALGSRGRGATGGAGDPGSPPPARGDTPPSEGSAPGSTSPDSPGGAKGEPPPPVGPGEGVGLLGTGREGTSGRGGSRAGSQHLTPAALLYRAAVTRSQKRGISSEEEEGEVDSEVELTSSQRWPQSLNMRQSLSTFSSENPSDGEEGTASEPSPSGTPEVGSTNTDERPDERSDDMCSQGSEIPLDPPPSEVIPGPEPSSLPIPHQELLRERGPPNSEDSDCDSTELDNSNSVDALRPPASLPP

[20] = Volume of distribution at steady state in C57BL/6 mouse at 0.3 mg/kg, iv administered via tail vein and measured for 24 hrs by LC-MS/MS analysis; assay type: ADME, organism-based; conditions: in vivo, read-out: Vdss
[21] = Half life in C57BL/6 mouse at 0.3 mg/kg, iv administered via tail vein and measured for 24 hrs by LC-MS/MS analysis; assay type: ADME, organism-based; conditions: in vivo
[22] = Cmax in C57BL/6 mouse at 10 mg/kg administered via oral gavage and measured for 24 hrs by LC-MS/MS analysis; assay type: ADME, organism-based; parameters: dose 10 mg/kg, time 24 hrs, route po; conditions: in vivo
[23] = AUClast in C57BL/6 mouse at 10 mg/kg administered via oral gavage and measured for 24 hrs by LC-MS/MS analysis; assay type: ADME, organism-based; parameters: time 24 hrs, dose 10 mg/kg, route po; conditions: in vivo

SMILES | Kd [1] [nM] | CLint scaled at 1 µM [2] [mL/min/kg] | CLint scaled at 1 µM [3] [mL/min/kg] | CLint scaled at 1 µM [4] [mL/min/kg] | Kp uu at 24 h [6] | further results
Nc1ncc(-c2cn(C34CC(N5CCOCC5)(C3)C4)c(C3CC3)n2)cc1C(F)(F)F | 13 | 16 | 10 | 5 | 0.34 | half-life [5]: 3.8 h
CC(C)c1nc(-c2cnc(N)c(OC(F)(F)F)c2)cn1C12CC(N3CCOCC3)(C1)C2 | 14 | 9 | 6 | 9 | 0.6 | half-life [5]: 3.5 h; bioavailability [7]: > 100%; half-life [8]: 7 h; bioavailability [9]: > 100%; half-life [10]: 22.9 h; bioavailability [11]: 80%; half-life [12]: 6.3 h; bioavailability [13]: 64%; inhibition [14]: 16%; Activity (Mus musculus [15]): Active; Activity (Mus musculus [16]): Active; Activity [17]: Toxic; IC50 [18]: > 30000 nM
Nc1ncc(-c2cc([C@H]3[C@@H]4CN(C5COC5)C[C@@H]43)n(CC3CC3)n2)cc1C(F)(F)F | 13 |  |  |  |  | 
CC(C)c1nc(-c2cnc(N)c(C(F)(F)F)c2)cn1C1CCC1 | 66 | 789 | 133 | 233 |  | 
Nc1ncc(-c2cn(C34CC(C3)C4)c([C@@H](O)C(F)(F)F)n2)cc1OC(F)(F)F | 1.2 | 26 | 32 | 14 | 1.1 | IC50 [19]: 48 nM; F ([7]; mouse, po, 10 mg/kg, 24 h): 51%; Vd [20]: 4.6 L/kg; half-life [21]: 3.5 h; Cmax [22]: 2000 nM; AUClast [23]: 14.4 µM·h
CC(C)c1nc(-c2cnc(N)c(C(F)(F)F)c2)cn1C12CC(C1)C2 | 49 | 199 | 69 | 168 |  | 
CC(C)c1nc(-c2cnc(N)c(C(F)(F)F)c2)cn1C12CC(N3CCOCC3)(C1)C2 | 12 | 6 |  | 7 | 0.14 | half-life [5]: 3.3 h
CC(C)(C)Cc1nc(-c2cnc(N)c(C(F)(F)F)c2)cn1C12CC(N3CCOCC3)(C1)C2 | 66 |  | 43 | 14 |  | 
Nc1ncc(-c2cn(C34CC(N5CCOCC5)(C3)C4)c(C3CC3)n2)cc1OC(F)(F)F |  | 12 | 12 | 2 | 0.73 | half-life [5]: 3.5 h; bioavailability [7]: > 100%; half-life [8]: 3.4 h; bioavailability [9]: > 100%; half-life [10]: 10.5 h; bioavailability [11]: 77%; half-life [12]: 4.6 h; bioavailability [13]: 66%
CC(C)[C@H](O)c1nc(-c2cnc(N)c(OC(F)(F)F)c2)cn1C12CC(N3CCOCC3)(C1)C2 | 0.4 | 3 | 1 | 22 | 0.2 | 
Nc1ncc(-c2cn(C34CC(N5CCOCC5)(C3)C4)c(CC3CC3)n2)cc1C(F)(F)F |  |  | 5 | 6 |  | 
CC(C)n1nc(-c2cnc(N)c(C(F)(F)F)c2)cc1C1CC1 | 110 |  |  |  |  | 
CC(C)c1nc(-c2cnc(N)c(C(F)(F)F)c2)cn1C1CC1 | 130 |  |  |  |  | 
Nc1ncc(-c2cn([C@H]3[C@@H]4CN(C5COC5)C[C@@H]43)c(CC3CC3)n2)cc1C(F)(F)F | 63 |  |  |  |  | 
CC(C)Cc1nc(-c2cnc(N)c(C(F)(F)F)c2)cn1C12CC(N3CCOCC3)(C1)C2 | 6.1 |  | 11 | 9 |  | 
CC(C)c1nc(-c2cnc(N)c(C(F)(F)F)c2)cn1C1CCCC1 | 225 | 2670 | 238 | 362 |  | 
CC(C)C(O)c1nc(-c2cnc(N)c(OC(F)(F)F)c2)cn1C12CC(C1)C2 (centres undefined) | 0.6 |  | 91 | 35 |  | 
